For this test, the system named is pancreatic islet. Description: Impedance analysis of a pancreatic islet for insulin exocytosis (single frequency, real-time). The test is classed as cell-based. The source says:
In one embodiment, the method can be used to measure exocytosis of a molecule from an islet of cells. […] In one embodiment, islets can be modeled by 4 passive elements as in the equivalent electric circuit, where RMEM and CMEM represent the sum of the plasma membrane (MEM) resistances (R) and capacitances (C), and RCYT and RINT represent the sum of cytosolic (CYT) and intercellular space (INT) resistances, for all cells in the islet, respectively (FIG. 1B). AC currents applied across a whole islet result in voltage drops across these 4 elements, which are dependent, in part, on the AC frequency and the impedance (Z) of these elements (V=I(ZR(MEM+CYT+INT)+ZC(MEM)). ZC(MEM) and ZR(MEM) are generally sensitive to the level of an applied secretagogue (e.g., glucose), which at stimulatory levels decrease the RMEM, via opening of ion channels, and increase CMEM, via surface area increase reflective of exocytosis. Separation of the measured AC voltage into real (in phase with current) and imaginary (out of phase with current) components for 2 different frequencies can provide direct determination of RMEM, CMEM, RCYT and RINT through generation of 4 separate equations.
In order to optimize the resolution for monitoring changes in CMEM, an appropriate AC current can be applied at selected frequencies where the measured voltage drop across CMEM is readily detectable (e.g., where the measured voltage drop cross CMEM changes the most) during exocytosis. […] CIP can provide visualization of the changes in plasma membrane capacitance (PMc) over the range of applied frequencies, and thus the frequencies (e.g., 2 frequencies) at which the largest changes (e.g., the two largest changes) in plasma membrane capacitance can be determined as optimal AC frequencies.
The two optimal AC frequencies are then applied simultaneously to islets, e.g., according to the block diagram in FIG. 2. […] The computer can be used to compute, track and store the values of the passive elements of the equivalent circuit corresponding to the islet being measured. […]

This note sets out measurements from patent publication US9739734B2, “Methods and systems of detecting exocytosis of a target molecule from a population of cells” (THE MARINE […], priority 2013, dated 2017).

For the compound `[Cl-].[K+]` [KCl, potassium chloride], for the setting “25 mM KCl, before vs after addition, one frequency, FIG. 3”, the “exocytosis of insulin from cells in the islet (shift in complex impedance plot)” value is recorded as “substantial exocytosis of insulin”. Besides, the “change in whole islet capacitance (imaginary component of impedance)” value (KCl final concentration 25 mM, single frequency ~1250 Hz, time series, FIG. 4B) is reported as “immediate change in whole islet capacitance”. Further, under “KCl final concentration 25 mM, single frequency, time series, FIG. 4A”, the “change in whole islet resistance (real component of impedance)” value is reported as “not whole islet resistance”.
